Data from ChEMBL document CHEMBL1139814, “Conformationally restricted homotryptamines. Part 4: Heterocyclic and naphthyl analogs of a potent selective serotonin reuptake inhibitor” (Bioorg Med Chem Lett, 2007).

Key:
[1] = target: Sodium-dependent serotonin transporter (Homo sapiens, UniProt P31645); experiment: Inhibition of human SERT
[2] = target: T1, Sodium-dependent dopamine transporter (Homo sapiens, UniProt Q01959); experiment: Inhibition of DAT at 1 uM
[3] = target: T2, Sodium-dependent noradrenaline transporter (Homo sapiens, UniProt P23975); experiment: Inhibition of NET at 1 uM
[4] = target: T2, Sodium-dependent noradrenaline transporter; experiment: Inhibition of NET
[5] = target: T1, Sodium-dependent dopamine transporter; experiment: Inhibition of DAT

T1 sequence (Q01959 whole entry): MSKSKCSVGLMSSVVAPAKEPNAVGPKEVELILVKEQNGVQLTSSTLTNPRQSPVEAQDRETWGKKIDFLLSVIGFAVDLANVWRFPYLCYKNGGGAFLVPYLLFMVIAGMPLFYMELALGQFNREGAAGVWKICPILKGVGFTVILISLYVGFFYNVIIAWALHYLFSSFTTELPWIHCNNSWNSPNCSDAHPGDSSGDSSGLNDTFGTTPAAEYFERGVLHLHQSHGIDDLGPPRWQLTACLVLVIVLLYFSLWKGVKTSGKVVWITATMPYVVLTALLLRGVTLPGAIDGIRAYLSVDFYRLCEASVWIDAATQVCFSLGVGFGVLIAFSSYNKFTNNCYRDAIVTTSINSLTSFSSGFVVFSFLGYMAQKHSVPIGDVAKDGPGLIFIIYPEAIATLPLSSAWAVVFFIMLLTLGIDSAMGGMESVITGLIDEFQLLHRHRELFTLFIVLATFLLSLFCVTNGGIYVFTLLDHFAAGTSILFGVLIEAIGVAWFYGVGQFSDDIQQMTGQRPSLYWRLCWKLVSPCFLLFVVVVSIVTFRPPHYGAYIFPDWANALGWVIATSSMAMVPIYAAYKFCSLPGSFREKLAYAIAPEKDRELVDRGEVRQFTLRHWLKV
Chain of Sodium-dependent serotonin transporter (P31645 whole entry): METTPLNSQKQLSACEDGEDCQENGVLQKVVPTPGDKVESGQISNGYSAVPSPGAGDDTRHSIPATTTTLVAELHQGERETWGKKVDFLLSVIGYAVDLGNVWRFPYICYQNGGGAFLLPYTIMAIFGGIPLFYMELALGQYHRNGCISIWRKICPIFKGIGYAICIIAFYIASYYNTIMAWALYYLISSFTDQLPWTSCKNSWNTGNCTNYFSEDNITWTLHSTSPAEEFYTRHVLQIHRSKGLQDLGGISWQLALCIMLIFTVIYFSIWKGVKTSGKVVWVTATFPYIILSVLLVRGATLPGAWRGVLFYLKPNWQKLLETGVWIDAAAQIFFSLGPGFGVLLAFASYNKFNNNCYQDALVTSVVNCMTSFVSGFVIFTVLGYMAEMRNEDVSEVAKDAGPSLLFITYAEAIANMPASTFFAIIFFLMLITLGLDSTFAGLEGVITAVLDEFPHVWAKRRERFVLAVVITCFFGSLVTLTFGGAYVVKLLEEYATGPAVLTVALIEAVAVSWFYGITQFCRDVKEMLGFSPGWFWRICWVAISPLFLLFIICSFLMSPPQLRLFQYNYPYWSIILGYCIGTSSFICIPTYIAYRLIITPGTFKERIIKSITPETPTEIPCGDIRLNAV
T2 sequence (P23975 whole entry): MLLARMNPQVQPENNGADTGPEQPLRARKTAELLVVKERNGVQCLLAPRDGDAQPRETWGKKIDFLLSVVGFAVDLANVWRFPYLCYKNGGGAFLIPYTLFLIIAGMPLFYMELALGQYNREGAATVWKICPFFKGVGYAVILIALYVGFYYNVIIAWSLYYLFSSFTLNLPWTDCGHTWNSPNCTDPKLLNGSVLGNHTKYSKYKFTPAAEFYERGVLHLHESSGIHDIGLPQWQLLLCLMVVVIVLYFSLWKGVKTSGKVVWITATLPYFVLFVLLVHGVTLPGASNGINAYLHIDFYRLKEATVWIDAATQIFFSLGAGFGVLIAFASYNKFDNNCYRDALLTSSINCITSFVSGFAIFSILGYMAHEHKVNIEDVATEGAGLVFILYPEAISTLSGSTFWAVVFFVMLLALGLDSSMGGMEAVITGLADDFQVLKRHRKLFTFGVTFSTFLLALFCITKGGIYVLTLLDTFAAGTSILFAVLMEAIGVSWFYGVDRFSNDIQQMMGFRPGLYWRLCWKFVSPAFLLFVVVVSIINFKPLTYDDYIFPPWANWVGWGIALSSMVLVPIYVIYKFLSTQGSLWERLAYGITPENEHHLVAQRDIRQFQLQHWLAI

| IC50 [1] | inhibition [2] | inhibition [3] | IC50 [4] | IC50 [5] | SMILES |
| --- | --- | --- | --- | --- | --- |
| 17 nM |  |  |  |  | CNCC1CC1c1cccc2cc(C#N)ccc12 (stereo unspecified) |
|  | 12% | 2.3% |  |  | CN(C)CC1CC1c1cccc2ccccc12 (single isomer, unassigned; (+)) [listing 1 of 2 here] |
| 58 nM |  |  |  |  | CCN(C)CC1CC1c1cccc2ccccc12 (stereo unspecified) |
|  | 24% | 13% |  |  | CN(C)CC1CC1c1csc2ccccc12 (stereo in doubt; (+)-6) [listing 1 of 2 here] |
| 18 nM |  |  | 68000 nM | 33000 nM | CN(C)CC1CC1c1cccc2ccccc12 (single isomer, unassigned; (+)) [listing 2 of 2 here] |
| 150 nM |  |  |  |  | CN(C)CC1CC1c1csc2ccccc12 (stereo in doubt; (-)-6) |
| 120 nM |  |  |  |  | CCN(CC)CC1CC1c1cccc2ccccc12 (stereo unspecified) |
| 25 nM |  |  |  |  | CN(C)CC1CC1c1csc2ccccc12 (stereo in doubt; 6) |
| 8.6 nM |  |  | 8700 nM | 2400 nM | CN(C)CC1CC1c1ccc2ccccc2c1 (single isomer, unassigned; (+)) [listing 2 of 2 here] |
| 83 nM | 83% | 68% | 710 nM | 260 nM | CN(C)CC1CC1c1ccc2ccc(C#N)cc2c1 (racemic) |
| 67 nM |  |  |  |  | CCN(CC)CC1CC1c1cccc2cc(C#N)ccc12 (stereo unspecified) |
| 55 nM |  |  |  |  | CN(C)CC1CC1c1csc2ccccc12 (stereo in doubt; (+)-6) [listing 2 of 2 here] |
| 13 nM | 41% | 69% | 560 nM | 1100 nM | CN(C)CC1CC1c1ccc2cc(C#N)ccc2c1 (stereo unspecified) |
| 140 nM |  |  |  |  | CN(C)CC1CC1c1ccc2ccccc2c1 (single isomer, unassigned; (-)) |
| 170 nM |  |  |  |  | CN(C)CC1CC1c1cccc2ccccc12 (single isomer, unassigned; (-)) |
| 48 nM | 9.5% | 25% | 39000 nM | 12000 nM | CN(C)CC1CC1c1cccc2c(C#N)cccc12 (stereo unspecified) |
| 4.1 nM | 16% | 20% | 19000 nM | 8700 nM | CN(C)CC1CC1c1cccc2cc(C#N)ccc12 (stereo unspecified) |
| 8.6 nM |  |  |  |  | CN(C)CC1CC1c1ccc2ccccc2c1 (stereo in doubt; 10b) |
| 15 nM |  |  |  |  | CN(C)CC1CC1c1cccc2ccccc12 (stereo in doubt; 9b) |

The next lines start with the compound.

| SMILES | IC50 [1] | inhibition [2] | inhibition [3] | IC50 [4] | IC50 [5] |
| --- | --- | --- | --- | --- | --- |
| CCN(C)CC1CC1c1ccc2ccccc2c1 (stereo unspecified) | 310 nM |  |  |  |  |
| CNCC1CC1c1ccc2ccccc2c1 (stereo unspecified) | 52 nM |  |  |  |  |
| CNCC1CC1c1cccc2ccccc12 (stereo unspecified) | 89 nM |  |  |  |  |
| CN(C)C[C@H]1C[C@@H]1c1c[nH]c2ccccc12 (racemic) | 99 nM |  |  |  |  |
| CCN(CC)CC1CC1c1ccc2ccccc2c1 (stereo unspecified) | 550 nM |  |  |  |  |
| CN(C)CC1CC1c1cnc2ccccc2c1 (stereo unspecified) | 130 nM |  |  |  |  |
| CN(C)CC1CC1c1ccc2ccccc2c1 (single isomer, unassigned; (+)) [listing 1 of 2 here] |  | 31% | 18% |  |  |
| CN(C)CC1CC1c1c[nH]c2ncccc12 (racemic) | 410 nM |  |  |  |  |
| CCNCC1CC1c1cccc2cc(C#N)ccc12 (stereo unspecified) | 37 nM |  |  |  |  |
| CN(C)CC1CC1c1c[nH]c2ccc(C#N)cc12 (racemic) | 1.1 nM |  |  |  |  |
| CN(C)CC1CC1c1ccc2cc(C#N)c(C#N)cc2c1 (stereo unspecified) | 5.9 nM | 80% | 82% |  |  |
| CN(Cc1ccccc1)CC1CC1c1cccc2cc(C#N)ccc12 (stereo unspecified) | 16 nM |  |  |  |  |
| CN(C)C[C@H]1C[C@@H]1c1c[nH]c2ccc(F)cc12 (racemic) | 4.1 nM |  |  |  |  |
| CN(C)C[C@H]1C[C@@H]1c1c[nH]c2ccc(C#N)cc12 | 0.48 nM |  |  |  |  |
| CN(C)CC1CC1c1cncc2ccccc12 (stereo unspecified) | > 1000 nM |  |  |  |  |
| CN(C)CC1CC1c1cnc2ccccn12 (racemic) | > 1000 nM |  |  |  |  |
| CN(C)CC1CC1c1n[nH]c2ccc(C#N)cc12 (racemic) | 71 nM | 0% | -4.9% | > 100000 nM | 44000 nM |
| N#Cc1ccc2c(C3CC3CN3CCCC3)cccc2c1 (stereo unspecified) | 51 nM |  |  |  |  |
